Where no end group is shown, it is not given here.
Experiments:
Transferrin [1] = biological target: T1, Transferrin (Homo sapiens, UniProt P02787); test: SPR solution phase KD of candidate affinity elements, transferrin immobilized (Biacore T100); assay type: binding; details: steady-state response, 25° C., PBST
Procedure: Transferrin 25 μg/ml in immobilization buffer selected for correct pH was then applied 302 at a flow rate of 5 to 10 μl/min for a contact time of about 5 to 10 minutes, allowing the amine functionality on the transferrin 308 to displace the activated NHS ester and bond to the surface via an amide bond. Finally, ethylene diamine (1M ethylene diamine-HCl at pH 8.5) was applied 304 at a flow rate of 5 to 10 μl/min for a contact time of about 6 to 7 minutes to deactivate any remaining reactive groups on the dextran chip surface. Flow rates and contact times are adjusted as necessary to provide the surface concentration of target desired for the intended application, and may vary by target. In general, for evaluating whether binding occurs, it is preferable to immobilize a relatively large quantity of target, and higher flow rates and/or longer contact times may be used. For determining kinetics, it is preferable to limit the amount of target immobilized so as to minimize rebinding and avidity effects, and lower flow rates and/or contact times may be used.
Candidate affinity elements for the transferrin synbody TRF19, TRF21, TRF23, TRF24, TRF25, and TRF26 were individually evaluated for solution phase KD with respect to transferrin by SPR analysis. Because the off rates for these polypeptides were very high, KD values were estimated by measuring steady-state response for at least five concentrations in a two-fold dilution series, each concentration tested in duplicate. For each experiment, response data were processed using a reference surface to correct for bulk refractive index changes and any non-specific binding. Data were also double referenced using responses from blank running buffer injections. Each experiment was conducted at 25° C. using PBST (0.01M Phosphate Buffered Saline, 0.138M NaCl, 0.0027M KCl, 0.05% surfactant Tween20, pH 7.4) as the running buffer on a Biacore T100 instrument. Analytes were injected for 60 s at a flow rate of 30 μl/min. The antigen surfaces were regenerated with 30 s consecutive pulses of NaOH/NaCl (50 mM NaOH in 1M NaCl) and Glycine (10 mM glycine-HCl, pH 2.5).

Transferrin [2] = biological target: T1, Transferrin; test: SPR analysis of peptide pairs for binding to distinct sites on target; details: peptides applied in 1:1 mixtures in pairs
Source text: The transferrin target was immobilized on a Biacore T100 SPR chip, and candidate polypeptides were applied in 1:1 mixtures in pairs and response data obtained, in accordance with the methods described in Example 4 above. As illustrated in FIGS. 12A-D, upon flowing candidate polypeptides over the immobilized target, ideally one polypeptide applied alone would bind to a first binding site on the target and produce a first characteristic SPR response level (FIG. 12A), the other polypeptide would bind to a second, distinct binding site on the target, producing a second characteristic response level (FIG. 12B), and a mixture of the two polypeptides together (at the same concentrations as before) would produce a response level approximating the sum of the response levels produced by each polypeptide alone, as the polypeptides bind to distinct binding sites (FIG. 12C).

Transferrin [3] = biological target: T1, Transferrin; test: Affinity characterization of TRF26 lead and selected mutants; assay type: binding
Procedure: Two TRF26 point-mutants (P6Y, H12F) were selected for further affinity characterization. The P6Y and H12F point-mutants have dissociation constants of 8.6±1.6 μM and 9.8±1.6 μM respectively. […] A TRF26 double mutant sequence containing the P6Y+H12F mutations was synthesized and characterized.

Transferrin [4] = biological target: T1, Transferrin; test: Peptide microarray ranking, labeled transferrin with E. coli lysate competitor; assay type: binding
Procedure: Several polypeptides were identified as candidate affinity elements for synbodies against an arbitrarily chosen protein target, transferrin, by incubating transferrin on the polypeptide microarray in the presence of E. coli lysate competitor. Transferrin was randomly direct-labeled at free amines with Alexa™ 555, and E. coli lysate was randomly direct-labeled at free amines with Alexa™ 647. Three replicate arrays were passivized by applying a mixture of BSA and mercaptohexanol for one hour. The arrays were blocked with unlabelled E. coli lysate for one hour, then washed three times with TBST (0.05% Tween) followed by three times with water. A mixture of labeled transferrin and labeled E. coli lysate was applied to the three replicate arrays and incubated for three hours. The arrays were again washed three times with TBST (0.05% Tween) followed by three times with water, and scanned at 555 nm and 647 nm using an array reader. Polypeptides were ranked as candidates for inclusion as affinity elements of synbodies by computing a score for each polypeptide equal to the mean raw 555 nm intensity over the six replicate features, squared, divided by the mean raw 647 nm intensity over the six replicate features. This simple scoring function tends to favor candidate polypeptides that bind at least moderate affinity, since otherwise the 555 nm intensity would be relatively lower, and that are relatively specific, since otherwise the 647 nm intensity would be relatively higher and contribute to a relatively lower score. Many variations of this ranking and identification process can be used, such as, by way of non-limiting examples, two-color comparisons against other competitors; comparisons with data taken in separate experiments with respect to other targets; and use of scoring functions taking into account other factors, employing other functional relationships, and/or involving statistical analysis and/or preprocessing of data and/or correcting for background fluorescence and/or other factors affecting the accuracy of the measured intensities. Ten polypeptides (Table 1) were identified for further evaluation for use as affinity elements in synbodies by choosing the polypeptides having the highest score (one polypeptide was rejected as difficult to synthesize, so the polypeptides chosen were ten of those having the eleven highest scores).
After preparation of the array in accordance with the methods previously described in Example 2, the array was washed one time for five minutes in 7.33% acetonitrile, 37% isopropanol, 0.55% trifluoroacetic acid, and 55% water. Alexa 555 labeled target protein transferrin was applied, together with Alexa 647 labeled E. coli lysate competitor, to the prewashed array and to an identical array without organic prewash. […] 5,010 on the array without organic prewash, but ranked no. 9601 on the prewashed array. Conversely, peptide TRF-21, shown by SPR analysis to be a relatively strong binder of transferrin, rose in rank from 84 on the non-prewashed array to rank no. 5 on the prewashed array.

TNF-α [5] = biological target: T2, TNF-α (Homo sapiens, UniProt P01375); test: SPR of TNF1 lead and mutant peptides on captured TNF-α (Biacore A100); assay type: binding
T2 sequence (P01375 77-233 limits assumed, species assumed): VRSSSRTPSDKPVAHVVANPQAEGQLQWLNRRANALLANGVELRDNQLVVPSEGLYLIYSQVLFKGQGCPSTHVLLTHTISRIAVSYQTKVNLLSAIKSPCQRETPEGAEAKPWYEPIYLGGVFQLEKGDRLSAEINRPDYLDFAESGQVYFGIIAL
Source text: Scanning Mutagenesis of the TNF1 Lead Peptide. After lead identification, the next step in the AMPLI algorithm is characterization of point mutations in the lead heteropolymer. Using short peptides makes it chemically feasible to synthesize a significant fraction of the point-mutant space, which can then be screened for enhanced point mutations. For example, all possible point mutations in the 17 randomized positions using all 20 natural amino acids could be synthesized and screened within a single 384-well plate (323 total point-mutants). However, libraries containing all 20 natural amino acids are not required for affinity optimization of protein-protein interactions. A library of TNF1 point-mutants containing all substitutions of the amino acid set {Y, A, D, S, K, N, V, W} in each of the 17 randomized positions (132 unique point-mutants) was synthesized. Tyrosine (Y), alanine (A), aspartic acid (D) and serine (S) were selected because of their effectiveness in producing high affinity interactions when substituted into the complementary-determining regions (CDRs) of synthetic antibodies (Felouse, Proceedings of the National Academy of Sciences 101(34):12467, 2004), lysine (K) was selected to balance the charge in the substitution set, asparagine (N), valine (V) and tryptophan (W) were selected to span the hydropathicity range (Kyte J & Doolittle R F, Journal of Molecular Biology 157(1):105-132, 1982). […] This concentration was used to increase the high-end dynamic range for quantifying enhancing point mutations at the expense of low-end dynamic range for quantifying detrimental point mutations.
Point-mutant libraries were prepared in 96-well stock plates From the stock plate, peptides were diluted to 50 μM concentration in Biacore HBS-EP buffer (GE Healthcare, Piscataway, N.J.) containing 1 mg/ml carboxymethyl-dextran (Sigma-Aldrich, St. Louis, Mo.) to reduce non-specific binding to the CM-5 SPR chip surface. TNF-α was captured on a CM-5 chip surface at different capture levels on spots 1, 2, 4, and 5 across all four flow cells corresponding to a 40-200 RU range of predicted Rmax binding responses. Spot 3 contained only immobilized neutravidin and served as a reference spot.
Using the prepared 96-well plates and Biacore A100 SPR instrument, four peptides were flowed separately, in parallel, through the four flow cells over all 4 TNF-α spots and the neutravidin reference spot, with a 60 second association phase and 300 second dissociation phase. SPR sensorgrams were recorded for each peptide response with all 4 TNF-α spots and the neutravidin reference spot across the four flow cells on the SPR chip. Surface regeneration was performed after every 12 injections in each flow cell with Biacore Glycine 2.5 regeneration solution (GE Healthcare, Piscataway, N.J.). Point-mutant reference subtracted, peptide molecular weight adjusted, responses at the late binding region of the sensorgram (a few seconds before dissociation) were compared to the response of the TNF1 lead
Purified point-mutant affinities were measured on the Biacore A100 using SPR equilibrium binding response across a series of peptide concentrations on an SPR chip with TNF-α captured as described above.
These sequences were synthesized and purified using standard solid-phase FMOC synthesis and HPLC purification.

TNF-α [6] = biological target: T2, TNF-α; test: Fluorescence anisotropy validation of TNF1-opt affinity; assay type: binding
Procedure: Affinity Characterization of Double, Triple and Quadruple Mutants. […] In all cases, an improvement in TNF-α affinity was observed when an additional enhancing substitution was added to the sequence. Double mutants were better than the corresponding single mutants, triple mutants were better than the corresponding single/double mutants and the quadruple mutant was better than the corresponding single/double/triple mutants (FIG. 71, Table 2).

TNF-α [7] = biological target: T2, TNF-α; test: SPR of TNF1 lead and mutant peptides on captured TNF-α (Biacore A100); assay type: binding; details: several sensorgrams; read-out: Kd determined from kinetic fits

T1 sequence (P02787 20-698): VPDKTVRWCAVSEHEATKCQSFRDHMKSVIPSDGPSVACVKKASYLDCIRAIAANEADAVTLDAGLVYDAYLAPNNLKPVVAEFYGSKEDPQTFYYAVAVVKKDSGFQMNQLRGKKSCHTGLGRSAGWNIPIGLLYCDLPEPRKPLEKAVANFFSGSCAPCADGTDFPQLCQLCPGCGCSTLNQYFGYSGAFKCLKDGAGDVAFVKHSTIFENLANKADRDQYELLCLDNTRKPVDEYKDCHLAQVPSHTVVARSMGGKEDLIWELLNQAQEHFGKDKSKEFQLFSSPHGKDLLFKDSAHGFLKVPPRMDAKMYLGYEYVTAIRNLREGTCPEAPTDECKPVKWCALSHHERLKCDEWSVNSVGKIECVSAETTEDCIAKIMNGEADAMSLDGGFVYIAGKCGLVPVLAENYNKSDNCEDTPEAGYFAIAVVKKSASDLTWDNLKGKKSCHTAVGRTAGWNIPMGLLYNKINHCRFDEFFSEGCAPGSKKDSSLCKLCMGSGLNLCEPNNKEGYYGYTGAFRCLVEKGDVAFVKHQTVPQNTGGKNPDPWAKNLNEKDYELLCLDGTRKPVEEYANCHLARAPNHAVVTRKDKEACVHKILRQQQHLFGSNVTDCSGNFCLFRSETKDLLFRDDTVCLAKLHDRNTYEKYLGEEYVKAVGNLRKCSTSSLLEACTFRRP

Kd (Transferrin [1]) | binding to distinct sites on transferrin (Transferrin [2]) | Binding ΔG (observed) (Transferrin [3]) | Rank -- prewash (Transferrin [4]; array with organic prewash) | Rank - non-prewash (Transferrin [4]; array without organic prewash) | Kd Fold-Change Relative to Lead (TNF-α [5]) | Kd (TNF-α [5]; SPR equilibrium binding response, read-out: Kd (observed)) | Binding ΔG (observed) (TNF-α [5]; calculated from dissociation constants) | Kd (TNF-α [5]; energetic additivity of component mutations, read-out: Predicted Kd) | Kd (TNF-α [6]) | Kd (TNF-α [7]) | Sequence
~100000 nM | bind distinct sites on transferrin | -5.56 ± 0.10 kcal/mol | 436 | 596 | – | – | – | – | – | – | AHKVVPQRQIRHAYNRYGSC [TRF26]
– | – | – | – | – | 100 ± 22 | 1600 ± 300 nM | -7.97 ± -0.11 kcal/mol | 700 to 1900 nM | 1100 ± 200 nM | 700 ± 20 nM | FERSYLKMPWKFLQSRQGSC [TNF1-opt]
